Measurements taken from patent US20040152904A1, “Delta1 pyrrolines” (priority 2001, published 2004).

Test system: Heliothis virescens caterpillars
Experiment: Heliothis virescens test
Format: in vivo
Conditions: 40 ppm active compound, soyabean shoots dipped
Description: (§1) Heliothis virescens Test Solvent: 30 parts by weight of dimethylformamide Emulsifier: 1 part by weight of alkylaryl polyglycol ether To produce a suitable preparation of active compound, 1 part by weight of active compound is mixed with the stated amounts of solvent and emulsifier, and the concentrate is diluted with emulsifier-containing water to the desired concentration. Soyabean shoots (Glycine max) are treated by being dipped into the preparation of active compound of the desired concentration and are populated with Heliothis virescens caterpillars whilst the leaves are still moist. After the desired period of time, the kill in % is determined. 100% means that all caterpillars have been killed; 0% means that none of the caterpillars have been killed.

SMILES	Kill rate in % after 6d [%]
CCn1nnc(-c2ccc(-c3ccc(C4CCC(c5c(F)cccc5F)=N4)cc3)cc2)n1 (stereo not shown) [drawing 55]	100
CC(C)(C)n1nnc(-c2ccc(-c3ccc(C4CCC(c5c(F)cccc5F)=N4)cc3)cc2)n1 (stereo not shown) [drawing 54]	100

Test system: larvae of the mustard beetle (Phaedon cochleariae)
Experiment: Phaedon larvae test
Format: in vivo
Conditions: 1000 ppm active compound, cabbage leaves dipped
Description: as §1, with “Phaedon larvae” for “Heliothis virescens”, “Cabbage leaves (Brassica oleracea)” for “Soyabean shoots (Glycine max)”, “larvae of the mustard beetle (Phaedon cochleariae)” for “Heliothis virescens caterpillars”, “beetle larvae” for “caterpillars”

SMILES	Kill rate in % after 7d [%]
CCn1nnc(-c2ccc(-c3ccc(C4CCC(c5c(F)cccc5F)=N4)cc3)cc2)n1 (stereo not shown) [drawing 58]	100
CCOCn1nnc(-c2ccc(-c3ccc(C4CCC(c5c(F)cccc5F)=N4)cc3)cc2)n1 (stereo not shown) [drawing 59]	100
CCCn1nnc(-c2ccc(C3CCC(c4c(F)cccc4F)=N3)cc2)n1 (stereo not shown) [drawing 57]	100
CC(C)(C)n1nnc(-c2ccc(-c3ccc(C4CCC(c5c(F)cccc5F)=N4)cc3)cc2)n1 (stereo not shown) [drawing 56]	100

Test system: not given
Experiment: not given
Conditions: not given

SMILES	melting point [°C]
CC(C)(C)n1nnc(-c2ccc(-c3ccc(C4CCC(c5c(F)cccc5F)=N4)cc3)cc2)n1 (stereo not shown) [Example 2, 2-tert-butyl-5-{4′-[5-(2,6-difluorophenyl)-3,4dihydro-2H-pyrrol-2-yl]-1,1′-biphenyl-4-yl}-2H-tetrazole]	96
N#Cc1ccc(C2CCC(=O)N2)cc1 (stereo not shown) [XIII-a-1, 4-(5-oxo-2-pyrrolidinyl)benzonitrile]	155

Further lines, results first:

melting point [°C]	SMILES
57	N#Cc1ccc(C2CCC(c3c(F)cccc3F)=N2)cc1 (stereo not shown) [VIII-1, 4-[5-(2,6-difluorophenyl)-3,4-dihydro-2Hpyrrol-2-yl]benzonitrile]
152	CC(C)(C)OC(=O)N1C(=O)CCC1c1ccc(-c2ccc(C#N)cc2)cc1 (stereo not shown) [XI-2, tert-butyl 2(4′-cyano-1,1′-biphenyl-4-yl)-5-oxo-1-pyrrolidinecarboxylate]
123	N#Cc1ccc(-c2ccc(C3CCC(c4c(F)cccc4F)=N3)cc2)cc1 (stereo not shown) [VIII-2, 4′-[5-(2,6-difluorophenyl)-3,4-dihydro-2H-pyrrol-2-yl]-1,1′-biphenyl-4carbonitrile]

Test system: not listed separately
Experiment: logP by HPLC (EEC Directive 79/831 Annex V.A8, reversed-phase C 18)
Format: physicochemical
Conditions: reversed-phase HPLC column (C 18), pH 2.3, 0.1% aqueous phosphoric acid / acetonitrile, 43° C., read-out: logP (pH 2.3)
Description: The stated logP values were determined in accordance with EEC Directive 79/831 Annex V.A8 by HPLC (High Performance Liquid Chromatography) using a reversed-phase column (C 18). Temperature: 43° C.
In the acidic range, the determination was carried out at pH 2.3 using the mobile phases 0.1% aqueous phosphoric acid and acetonitrile; linear gradient from 10% acetonitrile to 90% acetonitrile.
In the neutral range, the determination was carried out at pH 7.5 using the mobile phases 0.01 molar aqueous phosphate buffer solution and acetonitrile; linear gradient from 10% acetonitrile to 90% acetonitrile.
Calibration was carried out using unbranched alkan-2-ones (having 3 to 16 carbon atoms) with known logP values (determination of the logP values by the retention times using linear interpolation between two successive alkanones).

SMILES	chromatographic logP
CC(C)(C)n1nnc(-c2ccc(-c3ccc(C4CCC(c5c(F)cccc5F)=N4)cc3)cc2)n1 (stereo not shown) [Example 2, 2-tert-butyl-5-{4′-[5-(2,6-difluorophenyl)-3,4dihydro-2H-pyrrol-2-yl]-1,1′-biphenyl-4-yl}-2H-tetrazole]	4.14
CCn1nnc(-c2ccc(-c3ccc(C4CCC(c5c(F)cccc5F)=N4)cc3)cc2)n1 (stereo not shown) [Example 5, 5-{4′-[5-(2,6-difluorophenyl)-3,4-dihydro-2Hpyrrol-2-yl]-1,1′-biphenyl-4-yl}-2-ethyl-2H-tetrazole]	3.21
Fc1cccc(F)c1C1=NC(c2ccc(-c3nn[nH]n3)cc2)CC1 (stereo not shown) [I-a-1]	1.28
N#Cc1ccc(C2CCC(=O)N2)cc1 (stereo not shown) [XIII-a-1, 4-(5-oxo-2-pyrrolidinyl)benzonitrile]	0.96
N#Cc1ccc(-c2ccc(C3CCC(=O)N3)cc2)cc1 (stereo not shown) [XIII-b-1, 4′-(5-oxo-2-pyrrolidinyl)-1,1′-biphenyl-4carbonitrile]	1.92
N#Cc1ccc(-c2ccccc2C2CCC(=O)N2)cc1 (stereo not shown) [2′-(5-oxo-2-pyrrolidinyl)-1,1′-biphenyl-4carbonitrile]	1.94
CCCn1nnc(-c2ccc(C3CCC(c4c(F)cccc4F)=N3)cc2)n1 (stereo not shown) [Example 1]	2.61

Now from value to compound:

chromatographic logP	SMILES
3.42	CCOCn1nnc(-c2ccc(Br)cc2)n1 [VII-2, 2-ethoxymethyl-5-(4-bromo-phcnyl)-1(2)H tetrazole]
2.11	N#Cc1ccc(C2CCC(c3c(F)cccc3F)=N2)cc1 (stereo not shown) [VIII-1, 4-[5-(2,6-difluorophenyl)-3,4-dihydro-2Hpyrrol-2-yl]benzonitrile]
4.23	CC(C)(C)n1nnc(-c2ccc(Br)cc2)n1 [VII-1, 2-tert-butyl-5-(4-bromo-phenyl)-1(2)H-tetrazole]
0.19	OB(O)c1ccc(-c2nn[nH]n2)cc1 [Example V-2, 4-(2H-tetrazol-5-yl)-phenylboronic acid]
2.12	CC(C)(C)OC(=O)N1C(=O)CCC1c1ccc(C#N)cc1 (stereo not shown) [XI-1, tert-butyl-2-(4-cyanophenyl)-5-oxo-1-pyrrolidinecarboxylate]
2.01	CC(C)(C)n1nnc(-c2ccc(B(O)O)cc2)n1 [Example V-1, 4-[(2-tert-butyl)-2H-tetrazol-5-yl]phenylboronic acid]
3.2	CCn1nnc(-c2ccc(Br)cc2)n1 [VII-3, 2-ethyl-5-(4-bromo-phenyl)-1(2)H-tetrazole]
3.03	CC(C)(C)OC(=O)N1C(=O)CCC1c1ccc(-c2ccc(C#N)cc2)cc1 (stereo not shown) [XI-2, tert-butyl 2(4′-cyano-1,1′-biphenyl-4-yl)-5-oxo-1-pyrrolidinecarboxylate]
2.84	N#Cc1ccc(-c2ccc(C3CCC(c4c(F)cccc4F)=N3)cc2)cc1 (stereo not shown) [VIII-2, 4′-[5-(2,6-difluorophenyl)-3,4-dihydro-2H-pyrrol-2-yl]-1,1′-biphenyl-4carbonitrile]

Same assay, conditions: reversed-phase HPLC column (C 18), pH not printed at the place, read-out: logP

chromatographic logP	SMILES
4.14	CC(C)(C)n1nnc(-c2ccc(-c3ccc(C4CCC(c5c(F)cccc5F)=N4)cc3)cc2)n1 (stereo not shown) [Example 3, 2-tert-butyl-5-{4′-[5-(2,6-difluorophenyl)-3,4dihydro-2H-pyrrol-2-yl]-1′-biphenyl-4-yl}-2H-tetrazole]
3.4	CCOCn1nnc(-c2ccc(-c3ccc(C4CCC(c5c(F)cccc5F)=N4)cc3)cc2)n1 (stereo not shown) [Example 4, 5-{4′-[5-(2,6-difluorophenyl)-3,4-dihydro-2H-pyrrol-2-yl]-1,1′-biphenyl-4-yl}-2-(ethoxymethyl)-2H-tetrazole]

Test system: army worm (Spodoptera exigua) caterpillars
Experiment: Spodoptera exigua test
Format: in vivo
Conditions: 8 ppm active compound, cabbage leaves dipped
Description: as §1, with “Spodoptera exigua Test” for “Heliothis virescens Test”, “Solvent: 7” for “Solvent: 30”, “concentration. Cabbage leaves (Brassica oleracea)” for “concentration. Soyabean shoots (Glycine max)”, “with army worm (Spodoptera exigua)” for “with Heliothis virescens”

SMILES	Kill rate in % after 6d [%]
CC(C)(C)n1nnc(-c2ccc(-c3ccc(C4CCC(c5c(F)cccc5F)=N4)cc3)cc2)n1 (stereo not shown) [drawing 61]	100

Same assay, conditions: 40 ppm active compound, cabbage leaves dipped

SMILES	Kill rate in % after 6d [%]
CCn1nnc(-c2ccc(-c3ccc(C4CCC(c5c(F)cccc5F)=N4)cc3)cc2)n1 (stereo not shown) [drawing 62]	100

Test system: Amblyomma variegatum or A. hebraeum, nymphs which have sucked themselves full
Experiment: Nymphecdysis test on polyphagous ticks
Format: in vivo
Conditions: 100 ppm active compound; nymphs immersed for 1 minute
Description: Nymphecdysis Test on Polyphagous Ticks
Test animals: Amblyomma variegatum or A. hebraeum, nymphs which have sucked themselves full
Solvent: Dimethyl sulphoxide
20 mg of active compound are dissolved in 1 ml of dimethyl sulphoxide, more dilute concentrations are prepared by dilution with distilled water.
10 nymphs which have sucked themselves full are immersed for 1 minute into the preparation of active compound to be tested. The animals are transferred to petri dishes (∅ 9.5 cm) fitted with filter discs and covered. […]
100% means that none of the animals have undergone normal ecdysis. 0% means that all animals have undergone ecdysis.
In this test, for example, the compounds 4 and 5 of the preparation examples show good activity.

SMILES	Effect on ecdysis in % after 48h [%]
CCOCn1nnc(-c2ccc(-c3ccc(C4CCC(c5c(F)cccc5F)=N4)cc3)cc2)n1 (stereo not shown) [drawing 74]	100
CCn1nnc(-c2ccc(-c3ccc(C4CCC(c5c(F)cccc5F)=N4)cc3)cc2)n1 (stereo not shown) [drawing 73]	100

Same assay, conditions: in vivo

SMILES	activity in the nymphecdysis test
CCn1nnc(-c2ccc(-c3ccc(C4CCC(c5c(F)cccc5F)=N4)cc3)cc2)n1 (stereo not shown) [Example 5, 5-{4′-[5-(2,6-difluorophenyl)-3,4-dihydro-2Hpyrrol-2-yl]-1,1′-biphenyl-4-yl}-2-ethyl-2H-tetrazole]	good activity
CCOCn1nnc(-c2ccc(-c3ccc(C4CCC(c5c(F)cccc5F)=N4)cc3)cc2)n1 (stereo not shown) [Example 4, 5-{4′-[5-(2,6-difluorophenyl)-3,4-dihydro-2H-pyrrol-2-yl]-1,1′-biphenyl-4-yl}-2-(ethoxymethyl)-2H-tetrazole]	good activity

Test system: greenhouse red spider mite (tetranychus urticae)
Experiment: Tetranychus test (OP-resistant/dip treatment)
Format: in vivo
Conditions: 100 ppm active compound, bean plants dipped
Description: Tetranychus Test (OP-Resistant/Dip Treatment)
Solvent: 30 parts by weight of dimethylformamide
Emulsifier: 1 part by weight of alkylaryl polyglycol ether
To produce a suitable preparation of active compound, 1 part by weight of active compound is mixed with the stated amounts of solvent and emulsifier, and the. concentrate is diluted with emulsifier-containing water to the. desired concentration.
Bean plants (Phaseolus vulgaris) which are heavily infested by all stages of the greenhouse red spider mite (tetranychus urticae) are dipped into a preparation of active compound of the desired concentration.
After the desired period of time, the effect in % is determined. 100% means that all spider mites have been killed; 0% means that none of the spider mites have been killed.

SMILES	Kill rate in % after 7d [%]
CCOCn1nnc(-c2ccc(-c3ccc(C4CCC(c5c(F)cccc5F)=N4)cc3)cc2)n1 (stereo not shown) [drawing 70]	98
CCCn1nnc(-c2ccc(C3CCC(c4c(F)cccc4F)=N3)cc2)n1 (stereo not shown) [drawing 68]	90
CC(C)(C)n1nnc(-c2ccc(-c3ccc(C4CCC(c5c(F)cccc5F)=N4)cc3)cc2)n1 (stereo not shown) [drawing 67]	98
CCn1nnc(-c2ccc(-c3ccc(C4CCC(c5c(F)cccc5F)=N4)cc3)cc2)n1 (stereo not shown) [drawing 69]	98

Test system: army worm (Spodoptera frugiperda) caterpillars
Experiment: Spodoptera frugiperda test
Format: in vivo
Conditions: 1000 ppm active compound, cabbage leaves dipped
Description: as §1, with “Spodoptera frugiperda Test” for “Heliothis virescens Test”, “concentration. Cabbage leaves (Brassica oleracea)” for “concentration. Soyabean shoots (Glycine max)”, “with army worm (Spodoptera frugiperda)” for “with Heliothis virescens”

SMILES	Kill rate in % after 7d [%]
CCn1nnc(-c2ccc(-c3ccc(C4CCC(c5c(F)cccc5F)=N4)cc3)cc2)n1 (stereo not shown) [drawing 65]	100
CCCn1nnc(-c2ccc(C3CCC(c4c(F)cccc4F)=N3)cc2)n1 (stereo not shown) [drawing 64]	100
CC(C)(C)n1nnc(-c2ccc(-c3ccc(C4CCC(c5c(F)cccc5F)=N4)cc3)cc2)n1 (stereo not shown) [drawing 63]	100
CCOCn1nnc(-c2ccc(-c3ccc(C4CCC(c5c(F)cccc5F)=N4)cc3)cc2)n1 (stereo not shown) [drawing 66]	100
